A value given as a limit tells only on which side of the number the result lay.

Chain of Cell division control protein 42 homolog (P60953 whole entry): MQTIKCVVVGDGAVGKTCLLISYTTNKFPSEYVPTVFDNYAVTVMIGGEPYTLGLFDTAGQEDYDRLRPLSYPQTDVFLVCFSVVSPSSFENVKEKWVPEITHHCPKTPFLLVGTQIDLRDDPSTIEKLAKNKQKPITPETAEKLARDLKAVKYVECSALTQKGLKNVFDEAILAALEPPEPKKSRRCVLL

One experiment concerns the target Cell division control protein 42 homolog (Homo sapiens, UniProt P60953). Description: blockade of fluorescent GTP uptake by Cdc42 wt – biochemical, bead-based multiplex flow cytometry, oxadiazole series, SAR follow-up (AID 2037).
Settings: not given
For the compound `Cc1ccc(C)c(N2CCN(C(=O)CCc3nc(-c4ccccc4C(F)(F)F)no3)CC2)c1`, a half-maximal effect (EC50) was put at 4950 nM. In the case of `COc1ccc(-c2noc(CCCCC(=O)N3CCN(c4cc(C)ccc4C)CC3)n2)cc1` [1-[4-(2,5-dimethylphenyl)-1-piperazinyl]-5-[3-(4-methoxyphenyl)-1,2,4-oxadiazol-5-yl]-1-pentanone], the EC50 (as a rule, the concentration needed to bring the measured effect to its halfway point) is > 30000 nM.

Consider `COc1ccc(-c2ccc(CCC(=O)N3CCN(c4cc(C)ccc4C)CC3)o2)cc1` [KUC103447N], for which the EC50 was > 30000 nM. Turning to `COc1ccc(-c2noc(CCC(=O)N3CCC(c4cc(C)ccc4C)CC3)n2)cc1` [KUC103432N], the EC50 was 1420 nM. On to `COc1ccc(-c2noc(CC(=O)N3CCN(c4cc(C)ccc4C)CC3)n2)cc1` [1-[4-(2,5-dimethylphenyl)piperazin-1-yl]-2-[3-(4-methoxyphenyl)-1,2,4-oxadiazol-5-yl]ethanone], for which the EC50 was > 30000 nM.

As to `COc1ccc(-c2noc(CCC(=O)N3CCN(c4ccccc4OC)CC3)n2)cc1` [3-[3-(4-methoxyphenyl)-1,2,4-oxadiazol-5-yl]-1-[4-(2-methoxyphenyl)-1-piperazinyl]-1-propanone], the EC50 is > 30000 nM. In the case of `COc1ccc(-c2noc(CCC(=O)N3CCN(c4ccc(Br)cc4)CC3)n2)cc1` [1-[4-(4-bromophenyl)piperazin-1-yl]-3-[3-(4-methoxyphenyl)-1,2,4-oxadiazol-5-yl]propan-1-one], the EC50 was > 30000 nM.

For `COc1ccc(-c2noc(CCC(=O)N3CCN(c4ccc(C(F)(F)F)cc4)CC3)n2)cc1` [3-[3-(4-methoxyphenyl)-1,2,4-oxadiazol-5-yl]-1-[4-[4-(trifluoromethyl)phenyl]piperazin-1-yl]propan-1-one], the EC50 is > 30000 nM. On to `COc1ccc(-c2noc(CCC(=O)N3CCN(c4ccc(Cl)cc4)CC3)n2)cc1` [UNM-0000306121], for which the EC50 was > 30000 nM. The compound `Cc1ccc(-c2noc(CCC(=O)N3CCN(c4cc(C)ccc4C)CC3)n2)cc1` [1-[4-(2,5-dimethylphenyl)-1-piperazinyl]-3-[3-(4-methylphenyl)-1,2,4-oxadiazol-5-yl]-1-propanone] returned an EC50 of 4370 nM. On the same count and under the same terms, the same measure for `Cc1ccc(C)c(N2CCN(C(=O)CCc3nc(-c4cccc(Cl)c4)no3)CC2)c1` [UNM-0000306086]: 2180 nM; for `Cc1ccc(C)c(N2CCN(C(=O)CCc3nc(-c4ccccc4F)no3)CC2)c1` [KUC103401N]: > 30000 nM.

Regarding `COc1ccc(-c2cc(CCC(=O)N3CCN(c4cc(C)ccc4C)CC3)[nH]n2)cc1` [UNM-0000306150], the EC50 is > 30000 nM.

For `COc1ccc(-c2noc(CCC(=O)N3CCN(c4cccc(Cl)c4)CC3)n2)cc1`, the EC50 is > 30000 nM. As to `COc1ccc(-c2noc(CCC(=O)N3CCN(c4ccccc4Br)CC3)n2)cc1` [KUC103370N], the EC50 is 2310 nM.

On to `Cc1ccc(C)c(N2CCN(C(=O)CCc3nc(-c4ccccc4Cl)no3)CC2)c1` [3-[3-(2-chlorophenyl)-1,2,4-oxadiazol-5-yl]-1-[4-(2,5-dimethylphenyl)-1-piperazinyl]-1-propanone], for which the EC50 was > 30000 nM. Same read-out and setting: with `Cc1ccc(C)c(N2CCN(C(=O)CCc3nc(-c4ccccc4C)no3)CC2)c1` the figure was > 30000 nM; with `COc1ccc(-c2noc(CCC(=O)N3CCN(c4ccccc4Cl)CC3)n2)cc1` [1-[4-(2-chlorophenyl)piperazin-1-yl]-3-[3-(4-methoxyphenyl)-1,2,4-oxadiazol-5-yl]propan-1-one], 805 nM. With `Cc1ccc(C)c(N2CCN(C(=O)CCc3nc(-c4cccc(C(F)(F)F)c4)no3)CC2)c1` [KUC103380N], the EC50 was > 30000 nM. `COc1ccc(-c2cc(CCC(=O)N3CCN(c4cc(C)ccc4C)CC3)on2)cc1` [1-[4-(2,5-dimethylphenyl)piperazin-1-yl]-3-[3-(4-methoxyphenyl)-1,2-oxazol-5-yl]propan-1-one]: the EC50 was > 30000 nM. As for `COc1ccc(-c2ccc(CCC(=O)N3CCN(c4cc(C)ccc4C)CC3)[nH]2)cc1` [1-[4-(2,5-dimethylphenyl)piperazin-1-yl]-3-[5-(4-methoxyphenyl)-1H-pyrrol-2-yl]propan-1-one], the EC50 was > 30000 nM. For `COc1ccc(-c2noc(CCC(=O)N3CCN(c4ccc(F)cc4)CC3)n2)cc1` [KUC103398N], the EC50 was > 30000 nM. For `Cc1cccc(-c2noc(CCC(=O)N3CCN(c4cc(C)ccc4C)CC3)n2)c1` [1-[4-(2,5-dimethylphenyl)piperazin-1-yl]-3-[3-(3-methylphenyl)-1,2,4-oxadiazol-5-yl]propan-1-one], the midpoint of the response, the EC50, lay at 1020 nM. For `COc1ccc(-c2noc(CCC(=O)N3CCN(c4cccc(C)c4)CC3)n2)cc1` [UNM-0000306125], the EC50 was > 30000 nM. `Cc1ccc(C)c(N2CCN(C(=O)CCc3nc(-c4ccccc4)no3)CC2)c1` [UNM-0000306070] yielded an EC50 of 4000 nM. Compound `COc1cccc(-c2noc(CCC(=O)N3CCN(c4cc(C)ccc4C)CC3)n2)c1` had an EC50 of 2770 nM. Regarding `COc1ccc(-c2noc(CCC(=O)N3CCN(c4ccccc4)CC3)n2)cc1` [3-[3-(4-methoxyphenyl)-1,2,4-oxadiazol-5-yl]-1-(4-phenylpiperazin-1-yl)propan-1-one], the 50% effective concentration (EC50) is > 30000 nM. With `COc1ccc(-c2noc(CCC(=O)N3CCN(c4cccc(F)c4)CC3)n2)cc1` [1-[4-(3-fluorophenyl)piperazin-1-yl]-3-[3-(4-methoxyphenyl)-1,2,4-oxadiazol-5-yl]propan-1-one], the EC50 is > 30000 nM. On to `COc1ccc(-c2noc(CCC(=O)N3CCN(c4ccccc4C)CC3)n2)cc1`, for which the EC50 was 1710 nM.

With `COc1ccc(-c2ccc(CCC(=O)N3CCN(c4cc(C)ccc4C)CC3)s2)cc1`, the EC50 was > 30000 nM. As for `Cc1ccc(C)c(N2CCN(C(=O)CCc3nc(-c4cccc(F)c4)no3)CC2)c1` [KUC103366N], the EC50 was > 30000 nM.

As to `COc1ccc(-c2noc(CCC(=O)N3CCN(c4cccc(Br)c4)CC3)n2)cc1` [1-[4-(3-bromophenyl)-1-piperazinyl]-3-[3-(4-methoxyphenyl)-1,2,4-oxadiazol-5-yl]-1-propanone], the concentration giving a half-maximal response (EC50) was > 30000 nM. Compound `COc1ccc(-c2noc(CCCC(=O)N3CCN(c4cc(C)ccc4C)CC3)n2)cc1` [KUC103353N] displayed an EC50 of 6210 nM.

Take `COc1ccc(-c2coc(CCC(=O)N3CCN(c4cc(C)ccc4C)CC3)n2)cc1` [1-[4-(2,5-dimethylphenyl)piperazin-1-yl]-3-[4-(4-methoxyphenyl)-1,3-oxazol-2-yl]propan-1-one]: a half-maximal response (EC50) required 2280 nM. `Cc1ccc(C)c(N2CCN(C(=O)CCc3nc(-c4ccc(Cl)cc4)no3)CC2)c1` [UNM-0000306083] had an EC50 of 1720 nM.

The experiment is the same for the next values; noted with them: inactive by the depositor's call.
With `COc1ccc(-c2noc(CCC(=O)N3CCN(c4ccc(C)cc4)CC3)n2)cc1` [3-[3-(4-methoxyphenyl)-1,2,4-oxadiazol-5-yl]-1-[4-(4-methylphenyl)piperazin-1-yl]propan-1-one], the EC50 is 566 nM. The compound `Cc1ccc(C)c(N2CCN(C(=O)CCc3nc(-c4ccc(Br)cc4)no3)CC2)c1` [UNM-0000306072] displayed an EC50 of 1620 nM. For the compound `Cc1ccc(C)c(N2CCN(C(=O)CCc3nc(-c4ccc(C(F)(F)F)cc4)no3)CC2)c1` [1-[4-(2,5-dimethylphenyl)-1-piperazinyl]-3-[3-[4-(trifluoromethyl)phenyl]-1,2,4-oxadiazol-5-yl]-1-propanone], the EC50 is 3210 nM.

Turning to `Cc1ccc(C)c(N2CCN(C(=O)CCc3nc(-c4ccc(F)cc4)no3)CC2)c1` [KUC103364N], the EC50 was found to be 360 nM. In the case of `COc1ccc(-c2cccc(CCC(=O)N3CCN(c4cc(C)ccc4C)CC3)c2)cc1` [UNM-0000306127], the EC50 came out at 3670 nM.

In turn, `COc1ccc(-c2noc(CCC(=O)N3CCN(c4ccccc4F)CC3)n2)cc1` [1-[4-(2-fluorophenyl)piperazin-1-yl]-3-[3-(4-methoxyphenyl)-1,2,4-oxadiazol-5-yl]propan-1-one] registered an EC50 of 655 nM.

`COc1ccc(-c2noc(CCC(=O)N3CCN(c4ccccc4C(F)(F)F)CC3)n2)cc1` [UNM-0000306082]: the EC50 amounted to 1980 nM. The same measure, in the same setting: the same measure for `COc1ccc(-c2noc(CCC(=O)N3CCN(c4cc(C)ccc4C)CC3)n2)cc1` [1-[4-(2,5-dimethylphenyl)-1-piperazinyl]-3-[3-(4-methoxyphenyl)-1,2,4-oxadiazol-5-yl]-1-propanone]: 2740 nM; for `Cc1ccc(C)c(N2CCN(C(=O)CCc3nc(-c4ccccc4Br)no3)CC2)c1` [3-[3-(2-bromophenyl)-1,2,4-oxadiazol-5-yl]-1-[4-(2,5-dimethylphenyl)-1-piperazinyl]-1-propanone]: 2340 nM; for `Cc1ccc(C)c(N2CCN(C(=O)CCc3nc(-c4cccc(Br)c4)no3)CC2)c1` [KUC103367N]: 2140 nM. `COc1ccc(-c2noc(CCC(=O)N3CCN(c4ccc(OC)cc4)CC3)n2)cc1` [3-[3-(4-methoxyphenyl)-1,2,4-oxadiazol-5-yl]-1-[4-(4-methoxyphenyl)piperazin-1-yl]propan-1-one] returned an EC50 of 450 nM.

`COc1ccc(-c2noc(CCC(=O)N3CCN(c4cccc(OC)c4)CC3)n2)cc1` [KUC103349N] returned an EC50 of 12100 nM. Still for that read-out and setting: with `Cc1ccc(C)c(N2CCN(C(=O)CCc3nc(-c4ccc(N(C)C)cc4)no3)CC2)c1` [KUC103409N] the figure was 1190 nM; with `COc1ccc(-c2noc(CCC(=O)N3CCN(c4cccc(C(F)(F)F)c4)CC3)n2)cc1` [1-{3-[3-(4-methoxyphenyl)-1,2,4-oxadiazol-5-yl]propanoyl}-4-[3-(trifluoromethyl)phenyl]piperazine], 1920 nM.

`COc1ccc(-c2noc(CCC(=O)N3CCN(c4cccc(C)c4C)CC3)n2)cc1` [1-[4-(2,3-dimethylphenyl)-1-piperazinyl]-3-[3-(4-methoxyphenyl)-1,2,4-oxadiazol-5-yl]-1-propanone] yielded an EC50 of 1150 nM. For `COc1ccccc1-c1noc(CCC(=O)N2CCN(c3cc(C)ccc3C)CC2)n1` [UNM-0000306071], a half-maximal effect (EC50) was put at 1540 nM.

Values taken from BindingDB's records for doi:10.7270/Q2NK3CFW (Nmmlsc, 2009).
